Data on two compounds can be found in ChEMBL document CHEMBL1156195, “Antimicrobial selaginellin derivatives from Selaginella pulvinata” (Bioorg Med Chem Lett, 2010).

In general, IC50 refers to the concentration needed to halve the response being measured. A lower IC50 goes with inhibition by little substance.

Structures are written as SMILES. ≈ marks a conversion by molar mass, not a printed value. Calls of active or inactive are those of the source. The calls are words filed in the database; no cut-off is given here.

One assay concerns Candida albicans. Put plainly: Antifungal activity against Candida albicans. The assay is classed as functional, organism-based.
For another assay, the system named is Staphylococcus aureus. Put plainly: Antibacterial activity against Staphylococcus aureus. The assay is classed as functional, organism-based.

In the case of `Clc1ccc(COC(Cn2ccnc2)c2ccc(Cl)cc2Cl)c(Cl)c1.O=[N+]([O-])O` (centres undefined) [MICONAZOLE NITRATE], the IC50 in the assay with Candida albicans was under 1.2 µg/mL.
`CCOc1ccc(C(=C2C=CC(=O)C=C2)c2c(-c3ccc(O)cc3)ccc(CO)c2C#Cc2ccc(O)cc2)cc1` [SELAGINELLIN D]: in the assay on Candida albicans, the IC50 stood at 5.3 µg/mL (≈ 9.8 µM). Further, in the assay on Staphylococcus aureus, the IC50 result was “Not Active” and the MIC result is “inactive”.
